Test results as given in US20110306636A1, “OXAZOLE PYRIDINE DERIVATIVES USEFUL AS S1P1 RECEPTOR AGONISTS” (Merck Serono SA, priority 2009, published 2011).
Where a name gives a salt, the structure may show the parent alone. Read-outs that look alike come from different tables or passages of the source.

Tests used:
[1] = target: T1, human S1P1 Receptor fused to the green fluorescent protein (EGFP) (Homo sapiens, UniProt P21453); assay: Internalization of S1P1 in S1P1-U2OS cells by cell imaging analysis; format: cell-based; conditions: 1 hour incubation, 384-well
T1 construct: host or cells: U2OS (human bone osteosarcoma epithelial cells), CMV promoter, geneticin selection
Method: Cellular Functional Assays: Internalization of Sphingosine-1-Phosphate Receptor 1 (S1P1) in a Human Cell Line (U2OS) in a 384-Well Format Using a Cell Imaging Analysis.
The S1P1 internalization assay was performed in 384 well plates (Corning® 384 black with clear bottom 3712) using S1P1-U2OS cells from BioImage (C039A), a human epithelial cell line (Human Bone Osteosarcoma Epithelial Cells). These cells expressed the human S1P1 Receptor fused to the green fluorescent protein (EGFP). A standard CMV promoter (cytomegalovirus promoter) controls the expression of S1P1-EGFP and continuous expression was maintained by addition of geneticin to the culture medium.
S1P1 Receptor desensitization induced the internalization of the membrane-localized S1P1-EGFP fusion protein to endosomes, which can be monitored by cell imaging analysis.
The cells are plated in low serum medium (Dulbecco's Modified Eagle Medium (DMEM) with Glutamax-1 and high glucose, 1% Penicillin/Streptomycin, 1% Fetal Calf Serum (FCS), 0.5 mg/ml Geneticin) overnight.
The next day, S1P1-U2OS cells are incubated in 20 μl serum free medium (DMEM with Glutamax-1 and high glucose, 0.1% of fatty-acid free Bovin Serum Albumin (BSA), 10 mM, N′-2-Hydroxyethylpiperazine-N′-2 ethanesulphonic acid (HEPES) 1M) for 2 hours at 37° C./5% CO2.
The cells are then treated with 4 μl compounds/agonists (6×/3% DMSO) for a total volume of 24 μl, and plates are incubated for 1 hour at 37° C./5% CO2.
S1P1-U2OS cells are fixed with 25 μl Paraformaldehyde 8% and stained with Hoechst 33345 dye (1:1000) for 20 minutes.
They were then washed 3 times with Phosphate Buffered Saline (PBS) and plates are sealed.
The internalization of the receptor S1P1-EGFP is measured on Cellomics by calculating the “spot count per object” (“object” corresponds to nuclear and “spot” corresponds to S1P1-EGFP receptor). Internalization data were observed thanks to vHCS View and analyzed using Genedata® software.

S1P3 = S1P3 (Homo sapiens, UniProt Q99500); assay: Receptor binding assay, [33P]sphingosine 1-phosphate competition, S1P3
Method: (§1) Membranes Preparation: Membranes were prepared from CHO cells expressing S1P1 or S1P3 for use in ligand and 35S-GTPγS binding studies. Cells were suspended in 50 mM TRIS, pH 7.4, 2 mM EDTA, 250 mM Sucrose (buffer A) and 1× Complete protease inhibitor cocktail (Roche), and disrupted at 4° C. by N2 decompression using a cell disruption bomb (Parr Instrument). Following centrifugation at 1000 RPM for 10 min at 4° C., the supernatant was diluted (2×) in buffer A and centrifuged again at 19000 RPM for 75 min at 4° C. The pellet was then suspended in 10 mM HEPES, pH 7.4, 1 mM EDTA, 250 mM Sucrose (Buffer B), and 1× Complete EDTA-free protease inhibitor cocktail and homogenized using a potter. Membranes were flash frozen in liquid N2 and stored at −80° C.
(§2) Receptor binding assay: [33P]sphingosine 1-phosphate (3000 Ci/mmol; American Radiolabeled Chemicals, Inc.) was added to test compounds in 20% DMSO by competition. Membranes and WGA SPA beads (GE Healthcare) were added to give a final volume of 100 μl in 96-well plates or 50 μl in 384-well plates with assay concentrations of 30 pM or 15 pM [33P]sphingosine 1-phosphate (respectively for S1P1 or S1P3), 50 mM HEPES, pH 7.5, 5 mM MgCl2, 100 mM NaCl, 0.4% fatty acid-free BSA, 1-5 μg/well of proteins in 96-well plates vs 0.6-1 μg/well of proteins in 384-well plates and 100 μg/well of WGA SPA beads in 96-well plates vs 75 μg/well of WGA SPA beads in 384-well plates. Binding was performed for 60 min at RT on a shaker and bound radioactivity was measured on a PerkinElmer 1450 MicroBeta counter. Triplicate samples were averaged and normalized as purcentage of inhibition relative to total binding (only DMSO in well) and non specific binding (1000-fold excess of unlabeled S1P). Binding data were analyzed using the GraphPad Prism program or Genedata software.

S1P1 = S1P1 (Homo sapiens, UniProt P21453); assay: Receptor binding assay, [33P]sphingosine 1-phosphate competition, S1P1
Method: as §1, §2

[2] = 96 well-plate, read-out: S1P3 binding IC50 (M) (96 well-plate)
[3] = 384 well-plate, read-out: S1P3 binding IC50 (M) (384 well-plate)
[4] = 96 well-plate, read-out: S1P1 binding IC50 (M) (96 well-plate)
[5] = 384 well-plate, read-out: S1P1 binding IC50 (M) (384 well-plate)

S1P1, sequence (P21453 whole entry, species assumed): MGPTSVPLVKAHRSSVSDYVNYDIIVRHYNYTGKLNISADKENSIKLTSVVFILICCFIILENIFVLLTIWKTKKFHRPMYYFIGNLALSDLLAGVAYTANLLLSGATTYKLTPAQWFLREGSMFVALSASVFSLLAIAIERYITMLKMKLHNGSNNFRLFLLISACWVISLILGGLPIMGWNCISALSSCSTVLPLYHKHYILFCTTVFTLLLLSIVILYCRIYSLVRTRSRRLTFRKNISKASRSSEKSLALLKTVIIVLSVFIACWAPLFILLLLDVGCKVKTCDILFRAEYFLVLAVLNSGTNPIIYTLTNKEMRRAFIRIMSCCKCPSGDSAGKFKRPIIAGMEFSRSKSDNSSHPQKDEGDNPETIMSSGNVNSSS
T1 sequence (P21453 with tags, fused parts or gaps): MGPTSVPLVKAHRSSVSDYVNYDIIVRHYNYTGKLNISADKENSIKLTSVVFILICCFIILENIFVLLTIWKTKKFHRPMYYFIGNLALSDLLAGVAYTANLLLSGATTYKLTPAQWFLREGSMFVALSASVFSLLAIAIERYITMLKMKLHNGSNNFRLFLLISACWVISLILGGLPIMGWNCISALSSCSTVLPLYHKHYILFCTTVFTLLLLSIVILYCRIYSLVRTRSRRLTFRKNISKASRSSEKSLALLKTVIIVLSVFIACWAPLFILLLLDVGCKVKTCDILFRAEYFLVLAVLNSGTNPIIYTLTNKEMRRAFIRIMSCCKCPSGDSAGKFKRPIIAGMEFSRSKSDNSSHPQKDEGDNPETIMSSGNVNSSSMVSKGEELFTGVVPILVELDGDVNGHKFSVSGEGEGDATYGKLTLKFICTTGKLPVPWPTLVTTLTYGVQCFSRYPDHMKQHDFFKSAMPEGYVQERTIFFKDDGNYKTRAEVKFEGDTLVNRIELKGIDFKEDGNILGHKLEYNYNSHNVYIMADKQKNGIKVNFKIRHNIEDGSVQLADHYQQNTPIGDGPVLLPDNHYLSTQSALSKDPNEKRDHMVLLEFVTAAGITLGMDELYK
S1P3, sequence (Q99500 whole entry, species assumed): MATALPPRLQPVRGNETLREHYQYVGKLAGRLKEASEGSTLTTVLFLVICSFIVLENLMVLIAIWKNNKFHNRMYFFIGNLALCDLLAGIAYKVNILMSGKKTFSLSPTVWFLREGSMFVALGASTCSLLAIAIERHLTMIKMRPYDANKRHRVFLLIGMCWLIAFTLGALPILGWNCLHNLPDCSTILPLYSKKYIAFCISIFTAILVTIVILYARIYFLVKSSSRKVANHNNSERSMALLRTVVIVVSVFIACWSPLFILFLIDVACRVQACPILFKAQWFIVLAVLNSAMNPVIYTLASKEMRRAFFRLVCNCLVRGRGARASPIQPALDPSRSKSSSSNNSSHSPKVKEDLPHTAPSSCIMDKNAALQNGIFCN

EC50 [1] [nM] | IC50 (S1P3; [2]) [M] | IC50 (S1P3; [3]) [M] | IC50 (S1P1; [4]) [M] | IC50 (S1P1; [5]) [M] | SMILES
64.5 | 2.82e-06 | 3.39e-06 | 6.02e-09 |  | COCc1cc(-c2nc(-c3cnc(NCCCC(=O)O)c(C)c3)no2)ccc1-c1ccccc1F [Example 55, 4-[(5-{5-[2′-fluoro-2-(methoxymethyl)biphenyl-4-yl]-1,2,4-oxadiazol-3-yl}-3-methylpyridin-2-yl)amino]butanoic acid, hydrochloride salt]
156 | 2e-05 |  | 1.04e-08 | 4.56e-08 | Cc1ccccc1-c1ccc(-c2nc(-c3cnc(NCCC(=O)O)c(C)c3)no2)cc1C(F)(F)F [Example 59, N-(3-methyl-5-{5-[2′-methyl-2-(trifluoromethyl)biphenyl-4-yl]-1,2,4-oxadiazol-3-yl}pyridin-2-yl)-beta-alanine, hydrochloride salt]
21.3 | 5.75e-06 | 8.92e-06 |  | 3.4e-09 | CCOc1cc(-c2nc(-c3cnc(NCCC(=O)O)c(Cl)c3)no2)ccc1-c1ccccc1C(F)(F)F [Example 71, N-(3-chloro-5-{5-[2-ethoxy-2′-(trifluoromethyl)biphenyl-4-yl]-1,2,4-oxadiazol-3-yl}pyridin-2-yl)-beta-alanine, hydrochloride salt]
17.9 |  | 2.88e-06 |  | 7.83e-09 | Cc1ccccc1-c1ccc(-c2nc(-c3ccc(CN(C)CC(=O)O)nc3)no2)cc1C(F)(F)F [Example 74, 2-(methyl((5-(5-(2′-methyl-2-(trifluoromethyl)biphenyl-4-yl)-1,2,4-oxadiazol-3-yl)pyridin-2-yl)methyl)amino)acetic acid]
14.2 | 1.41e-07 | 4.68e-07 | 1.2e-09 |  | CC1CCCCN1c1ccc(-c2nc(-c3ccnc(CN(C)CCC(=O)O)c3)no2)cc1C(F)(F)F (centres unmarked) [Example 67, 3-(methyl((4-(5-(4-(2-methylpiperidin-1-yl)-3-(trifluoromethyl)phenyl)-1,2,4-oxadiazol-3-yl)pyridin-2-yl)methyl)amino)propanoic acid]
40.3 | 2.09e-06 | 1.71e-06 | 1.71e-09 | 4.77e-09 | COCc1cc(-c2nc(-c3cnc(NCCCC(=O)O)c(Cl)c3)no2)ccc1-c1ccccc1C [Example 56, 4-[(3-chloro-5-{5-[2-(methoxymethyl)-2′-methylbiphenyl-4-yl]-1,2,4-oxadiazol-3-yl}pyridin-2-yl)amino]butanoic acid, hydrochloride salt]
45.5 | 9.3e-06 | 5.26e-06 | 2.94e-09 | 2.48e-08 | COCc1cc(-c2nc(-c3cnc(NCCC(=O)O)c(C)c3)no2)ccc1-c1ccccc1C [Example 58, N-(5-{5-[2-(methoxymethyl)-2′-methylbiphenyl-4-yl]-1,2,4-oxadiazol-3-yl}-3-methylpyridin-2-yl)-beta-alanine, hydrochloride salt]
22.4 | 9.31e-06 | 7.94e-06 | 2.88e-09 | 1.4e-08 | COCc1cc(-c2nc(-c3ccc(NCC(O)CO)nc3)no2)ccc1-c1ccccc1C (centres unmarked) [Example 45, 3-[(5-{5-[2-(methoxymethyl)-2′-methylbiphenyl-4-yl]-1,2,4-oxadiazol-3-yl}pyridin-2-yl)amino]propane-1,2-diol, hydrochloride salt]
14.5 | 7.44e-07 | 1.38e-06 | 3.3e-09 | 8.68e-09 | CC1CCCCN1c1ccc(-c2nc(-c3ccnc(CN(C)CC(=O)O)c3)no2)cc1C(F)(F)F (centres unmarked) [Example 66, 2-(methyl((4-(5-(4-(2-methylpiperidin-1-yl)-3-(trifluoromethyl)phenyl)-1,2,4-oxadiazol-3-yl)pyridin-2-yl)methyl)amino)acetic acid]
9.48 | 3.04e-06 | 2.48e-06 | 3.01e-09 | 3.5e-09 | COCc1cc(-c2nc(-c3ccc(CN(C)CC(=O)O)nc3)no2)ccc1-c1ccccc1C [Example 78, 2-(((5-(5-(2-(methoxymethyl)-2′-methylbiphenyl-4-yl)-1,2,4-oxadiazol-3-yl)pyridin-2-yl)methyl)(methyl)amino)acetic acid]
